Measurements reported in patent US8404672B2, “Substituted heterocyclic compounds” (Bristol-Meyers Squibb Company, priority 2009, dated 2013).

Test system: rat adjuvant-induced arthritis model (hind paw volume)
Test: Rat Adjuvant Induced Arthritis Assay (AA)
Assay type: in vivo, Male Lewis rats
Conditions: for Paw Swelling on Day 20 (Mean): vehicle mean 1.11
Protocol: Rat Adjuvant Induced Arthritis Assay (AA)
Male Lewis rats (150-175 g; Harlan, n=8 treatment group) were immunized at the base of the tail with 100 μl of 10 mg/ml freshly ground Mycobacterium butyricum (Difco Laboratories) in incomplete Freund's adjuvant (sigma). Animals were dosed once daily with the test article (as a solution or suspension in the vehicle) or vehicle alone (polyethylene glycol 300, “PEG300”) starting from the day of immunization. The volumes of their hind paws were measured in a water displacement plethysmometer (Ugo Basile, Italy). The baseline paw measurements were taken before onset of the disease (between day 7 to day 10). The paw measurements were then taken three times a week until the end of the study on day 20. All procedures involving animals were reviewed and approved by the Institutional Animal Care Use Committee.
A compound of the present invention was tested in the Rat Adjuvant Induced Arthritis assay described hereinabove and the results are shown in Table F.

**Q.** Which results are given for `O=C(O)C1CN(Cc2ccc(-c3noc(-c4onc(-c5ccccn5)c4C(F)(F)F)n3)cc2)C1` [Example 1, 1-(4-(5-(3-(Pyridin-2-yl)-4-(trifluoromethyl)isoxazol-5-yl)-1,2,4-oxadiazol-3-yl)benzyl)azetidine-3-carboxylic acid]?
**A.** Paw Swelling on Day 20 (Mean) (0.03 mg/kg once daily from day of immunization): 1.48 mL; Paw Swelling on Day 20 (Mean) (0.1 mg/kg once daily from day of immunization): 1.41 mL; Paw Swelling on Day 20 (Mean) (0.5 mg/kg once daily from day of immunization): 0.72 mL; Paw Swelling on Day 20 (Mean) (3.0 mg/kg once daily from day of immunization): 0.07 mL; disease progression as measured by paw swelling (in words) (Lewis rat, prophylactic oral dosing): inhibits disease progression
